Legend:
[1] = Cytotoxicity Determination; type: cell-based; details: human, HEp-2 cells, without addition of virus, CCK-8 readout, bins (Table 4: greater than 100 μM; Table 5: equal to or less than 100 μM and greater than 10 μM), read-out: 50% cytotoxicity concentration (CC50)
Method: In order to determine the compound cytotoxicity, in parallel, each of the compounds is applied to duplicate wells in a 384-well cell plate at serial final concentrations starting from 100 μM using ½ stepwise dilutions for 7 points without addition of virus. Incubate the cells at 37° C., 5% CO2 for 5 days. Add 6 μl CCK-8 into each well and incubate in a CO2 incubator at 37° C. for 3-4 hours. Read the plates to obtain the optical densities which are used to calculate 50% cytotoxicity concentration (CC50).

[2] = system: Respiratory Syncytial Virus (RSV) long strain (ATCC#VR-26); experiment: RSV Antiviral Assay (CPE reduction assay); type: cell-based; details: human respiratory syncytial virus, 120 h; HEp-2 cells infected with RSV long strain, 5 days, CCK-8 readout; bins (Table 2: less than 1 μM; Table 3: equal to or higher than 1 μM and less than 50 μM); read-out: 50% effective concentration (EC50)
Method: CPE reduction assays are performed as described by Sidwell and Huffman et al., Appl. Microbiol. (1971) 22(5):797-801 with slight modifications. HEp-2 cells (ATCC#, CCL-23) are seeded at a density of 1,500 cells/30 μl/well into the 384-well cell plate(s) (Corning#3701) one day prior to the assay. Compounds are added into 384-well cell plates by Labcyte POD 810 Plate Assembler system. Each of the test compounds is provided to duplicate wells of a 384-well cell plate at final concentrations starting from 100 μM or 1 μM using ⅓ stepwise dilutions for 9 points. Quick-thaw Respiratory Syncytial Virus (RSV) long strain (ATCC#VR-26) stock in a 37° C. water bath. Place on ice until ready to use. Viruses are diluted to the concentration of 100 TCID50/30 μl with medium and 30 μl diluted RSV are added into related wells of 384-well cell plates. For each plate, sixteen wells are set aside as uninfected, untreated cell controls (CC), and nine wells per test plate receive virus only as a control for virus replication (VC). The final DMSO concentration of all wells is 1%. Place the plates at 37° C., 5% CO2 for 5 days.
After 5 days incubation, observe the CPE of cells in all wells. […] Six μl of cell counting kit-8 reagent (CCK-8, Dojindo Molecular Technologies Inc., CK04-20) are added to each well, which allows colorimetric assays to determine the number of viable cells through the dehydrogenase activity detection. After 3-4 hour incubation, the absorbance of each well is measured with a spectrophotometric plate reader at 450 nm wavelength, using a 630 nm filter as background according to manufacturer's instruction. The 50% effective concentration (EC50) is calculated by using regression analysis, based on the mean O.D. at each concentration of compound.

| SMILES | CC50 at 5 days [1] [µM] | EC50 [2] [µM] |
| --- | --- | --- |
| COc1cc(C(=O)N[C@H](CO)C(=O)c2ccc(OC)c(-c3ccc(F)c(Cl)c3)n2)ccc1OCCO [Compound 1831] | 10 to 100 | < 1 |
| CNc1cc(C(=O)CNC(=O)c2ccc(OC)c(OC)c2)nc(-c2csc3c(F)cccc23)c1 [Compound 1220] | > 100 | < 1 |
| COc1cc(C(=O)NCC(=O)c2ccc(OC)c(-c3c(C)[nH]c4c(F)cccc34)n2)ccc1OCCO [Compound 4002] | 10 to 100 | < 1 |
| COc1cc(OCCC(=O)N(C)/N=C/c2csc3c(F)cccc23)ccc1OCCO [Compound 2306] | > 100 | 1 to 50 |
| COc1ccc(C(=O)CNC(=O)c2ccncn2)nc1-c1ccc(F)c(Cl)c1 [Compound 4205] | > 100 | 1 to 50 |
| COc1cc(C(=O)NCC(=O)c2ccc(OC)c(-c3ccc(F)c(Cl)c3)n2)ccc1OCCN(C)C [Compound 1314] | 10 to 100 | 1 to 50 |
| COc1ccc(C(=O)N2CCCCC2C(=O)c2ccc(OC)c(-c3csc4c(F)cccc34)n2)cc1OC (stereo not shown) [Compound 1800] | 10 to 100 | 1 to 50 |
| COc1cc(C(=O)NCC(=O)c2cccc(-c3csc4c(F)cccc34)n2)ccc1OCCCCO [Compound 1223] | 10 to 100 | 1 to 50 |
| COc1ccc(C(=O)NCC(=O)c2cccc(-n3cnc4c(F)cccc43)n2)cc1OC [Compound 2600] | 10 to 100 | 1 to 50 |
| COc1ccc(C(=O)NCC(=O)N/N=C2\CCCc3sc4ccccc4c32)cc1OC [Compound 446] | > 100 | < 1 |
| COCCc1ccc(C(=O)NCC(=O)c2ccc(OC)c(-c3ccc(F)c(Cl)c3)n2)cc1OC [Compound 1331] | 10 to 100 | 1 to 50 |
| COc1cc(C(=O)NCC(=O)c2cccc(-c3csc4c(F)cccc34)n2)ccc1OC1CCOCC1 [Compound 1224] | > 100 | 1 to 50 |
| CNCCOc1ccc(C(=O)NCC(=O)c2ccc(OC)c(-c3ccc(F)c(Cl)c3)n2)cc1OC [Compound 1313] | 10 to 100 | 1 to 50 |
| COCC/C(=N\NC(=O)CNC(=O)c1ccc(OC)c(OC)c1O)c1csc2c(F)cccc12 [Compound 300] | 10 to 100 | < 1 |
| COc1ccc(C(=O)NC(C)(C)C(=O)c2cccc(-c3csc4c(F)cccc34)n2)cc1OC [Compound 1340] | > 100 | 1 to 50 |
| CCOc1cc(-c2nc(C(=O)CNC(=O)c3ccc(OC)c(OC)c3)ccc2OC)cc2ccccc12 [Compound 1509] | > 100 | 1 to 50 |
| COCC/C(=N/NC(=O)CNC(=O)c1ccc(OC2COC2)c(OC)c1)c1csc2c(F)cccc12 [Compound 514B] | > 100 | < 1 |
| COc1cc(C(=O)N[C@H](CCCCN)C(=O)c2ccc(OC)c(-c3csc4c(F)cccc34)n2)ccc1OCCO [Compound 1836] | 10 to 100 | 1 to 50 |
| COc1cc(C(=O)CNC(=O)c2ccc(OC)c(OC)c2)nc(-c2ccc(-c3c[nH]nn3)cc2)c1 [Compound 1405] | 10 to 100 | 1 to 50 |
| COc1ccc(C(=O)NCC(=O)c2ccc(OC)c(-c3ccc(C(=O)N4CCCCC4)cc3)n2)cc1OC [Compound 1518] | 10 to 100 | 1 to 50 |
| COc1cc(C(=O)CNC(=O)c2ccc(OCCN)c(OC)c2)nc(-c2csc3c(F)cccc23)c1 [Compound 1214] | 10 to 100 | < 1 |
| CCN(CC)c1cccc(C(=O)NCC(=O)N/N=C(\C)c2csc3ccccc23)c1 [Compound 503] | > 100 | 1 to 50 |
| COc1ccc(C(=O)NCC(=O)c2ccc(OC)c(-c3cccc4ccccc34)n2)cc1OC [Compound 1513] | 10 to 100 | 1 to 50 |
| CCOc1ccc(C(=O)NCC(=O)N/N=C(\CCOC)c2csc3c(F)cccc23)cc1OC [Compound 463A] | > 100 | < 1 |
| COc1ccc(C(=O)NCC(=O)N2CCC(c3csc4c(F)cccc34)=N2)cc1OC [Compound 1100] | 10 to 100 | 1 to 50 |
| COc1cc(C(=O)NCC(=O)c2cc(C)c(OC)c(-c3csc4c(F)cccc34)n2)ccc1OCCO [Compound 2103] | 10 to 100 | < 1 |

| SMILES | CC50 at 5 days [1] [µM] | EC50 [2] [µM] |
| --- | --- | --- |
| COc1ccc(C(=O)NCC(=O)c2ccc(OC)c(-c3csc4c(F)cccc34)n2)cc1OC [Compound 1336] | > 100 | < 1 |
| COc1cc(C(=O)NCC(=O)c2ccc(OC)c(-c3csc4ccc(F)cc34)n2)ccc1OCCO [Compound 1609] | > 100 | < 1 |
| COc1cc(C(=O)NCC(=O)N(C)/N=C/c2c(C)sc3c(F)cccc23)ccc1OCCO [Compound 2300] | 10 to 100 | < 1 |
| CCCN(/N=C/c1csc2c(F)cccc12)C(=O)CNC(=O)c1ccc(OCCO)c(OC)c1 [Compound 2302] | 10 to 100 | < 1 |
| COCC/C(=N\NC(=O)CNC(=O)c1ccc(OC)c(OC)c1)c1csc2c(F)cccc12 [Compound 400-15] | > 100 | < 1 |
| O=C(NCC(=O)c1cccc(-c2csc3c(F)cccc23)n1)c1ccc(OCCO)c(O)c1 [Compound 1230] | 10 to 100 | 1 to 50 |
| COc1cc(C(=O)NCC(=O)c2ccc(OC)c(-c3coc4c(F)cccc34)n2)ccc1OCCO [Compound 1343] | > 100 | < 1 |
| COCC/C(=N\NC(=O)CNC(=O)c1ccc(OC)c(OC)c1)c1csc2ccccc12 [Compound 493] | > 100 | < 1 |
| COc1cc(C(=O)NCC(=O)N/N=C/c2csc3c(F)cccc23)ccc1OCCO [Compound 604] | > 100 | < 1 |
| COc1ccc(C(=O)NCC(=O)N/N=C/c2c(C)[nH]c3ccccc23)cc1OC [Compound 403] | > 100 | 1 to 50 |
| COc1ccc(C(=O)NCC(=O)c2ccc(OC)c(-c3cccc4c(F)cccc34)n2)cc1OC [Compound 1522] | 10 to 100 | 1 to 50 |
| CCc1cc(C(=O)CNC(=O)c2ccc(OCCO)c(OC)c2)nc(-c2c[nH]c3c(F)cccc23)c1 [Compound 2112] | > 100 | < 1 |
| COc1ccc(C(=O)NCC(=O)c2cc(CC(C)C)cc(-c3csc4c(F)cccc34)n2)cc1OC [Compound 1239] | > 100 | 1 to 50 |
| CCN(CC)c1cc(C(=O)NCC(=O)N/N=C(\C)c2csc3ccccc23)ccc1OC [Compound 504] | 10 to 100 | 1 to 50 |
| COc1ccc(C(=O)CNC(=O)c2cc(C)on2)nc1-c1ccc(F)c(Cl)c1 [Compound 4202] | > 100 | 1 to 50 |
| COc1cc(Cl)c(C(=O)NCC(=O)N/N=C(\C)c2csc3ccccc23)cc1OC [Compound 482] | 10 to 100 | 1 to 50 |
| COc1cc(C(=O)NCC(=O)c2ccc(OC)c(-c3ccccc3)n2)ccc1OCCO [Compound 1613] | > 100 | < 1 |
| COc1cc(C(=O)NCC(=O)c2ccc(OC)c(-c3ccc(F)c(Cl)c3)n2)ccc1-c1cnn(C)c1 [Compound 2651] | 10 to 100 | 1 to 50 |
| COc1cc(C(=O)NCC(=O)c2c[nH]c(-c3csc4c(F)cccc34)n2)ccc1OCCO [Compound 1240] | > 100 | 1 to 50 |
| CCN(CC)c1ccc(C(=O)NCC(=O)N/N=C(\C)c2csc3ccccc23)cc1N(CC)CC [Compound 506] |  | 1 to 50 |
| C#Cc1cc(C(=O)CNC(=O)c2ccc(OCCO)c(OC)c2)nc(-c2csc3c(F)cccc23)c1 [Compound 4216] |  | 1 to 50 |
| COc1cc(C(=O)NCC(=O)c2ccc(OC)c(-c3ccc(F)c(Cl)c3)n2)ccc1-c1cccnc1 [Compound 2504] |  | 1 to 50 |
| COc1cc(C(=O)NCC(=O)c2ccc(OC)c(-c3ccc(F)c(Cl)c3)n2)ccc1OC1CC(N)C1 (stereo not shown) [Compound 1359] |  | < 1 |
| COc1cc(C(=O)NCC(=O)c2ccc(OC)c(-c3ccc(F)c(Cl)c3)n2)ccc1-c1ccncc1 [Compound 2507] |  | 1 to 50 |
| COc1cc(C(=O)NCC(=O)c2ccc(OC)c(-c3ccc(F)c(Cl)c3)n2)ccc1OCCO [Compound 1310] |  | < 1 |
| COc1ccc(C(=O)NCC(=O)c2ccc(OC)c(-c3cncc4ccccc34)n2)cc1OC [Compound 1512] |  | 1 to 50 |
